Measured values reported in US9382254B2, “Compounds and pharmaceutical compositions thereof for the treatment of cystic fibrosis” (Galapagos NV, priority 2013, dated 2016).
pEC50: −log10 of the molar value. Values joined by “and” are separate entries in the source; they are usually repeats but may differ in a detail not shown here. Equal entries are not always repeated.

Legend:
Format in all cases: cell-based
CFTR ΔF508 mutant [1] = target: T1, CFTR ΔF508 mutant (Homo sapiens, UniProt P13569, DEL508-508); assay: YFP-halide influx assay for the CFTR-ΔF508 mutation, gluconate buffer; conditions: CFBE41o- cells, forskolin 10.67 μM
T1 construct: expressed in transfected cells; host or cells: CFBE41o- (adenoviral transduction)
Outline: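 Channel opening is read as the fall in YFP fluorescence over 7 s following iodide injection, expressed as 1-F/F0 and plotted versus compound concentration to derive EC50. Cells used were CFBE41o- expressing adenoviral ΔF508 CFTR and halide-sensitive YFP, rescued by 24 h at 27 °C or 24 h modulator treatment at 37 °C.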

CFTR ΔF508 mutant [2] = target: T1, CFTR ΔF508 mutant; assay: YFP-halide influx assay for the CFTR-ΔF508 mutation, PBS buffer (96 well); conditions: CFBE41o- cells, forskolin 10.67 μM
Outline: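 CFBE41o- cells were adenovirally transduced with CFTR ΔF508 and YFP H148Q/I152L, then incubated 24 h at 27 °C or with a CFTR modulator at 37 °C. I⁻-induced fluorescence quenching was recorded over 7 s after injection; response expressed as 1−F/F0, with EC50 from concentration plots.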

CFTR ΔF508 mutant [3] = target: T1, CFTR ΔF508 mutant; assay: YFP-halide influx assay for the CFTR-ΔF508 mutation (384 well, FDSS/μCell); conditions: CFBE41o- cells, CFTR-ΔF508, 1×D-PBS, fluorescence after 36 seconds
Outline: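 Potentiator read-out as 1−F/F0, F taken 36 s after iodide addition, EC50 fitted against compound concentration. Cells: CFBE41o- expressing ΔF508 CFTR plus halide-sensitive YFP via adenovirus, rescued by 27 °C for 24 h or 24 h modulator at 37 °C.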

CFTR G551D mutant = target: T2, CFTR G551D mutant (Homo sapiens, UniProt P13569, G551D); assay: YFP-halide influx assay for the CFTR-G551D mutation; conditions: HEK293 cells, forskolin 10.67 μM
T2 construct: expressed in transfected cells; host or cells: HEK293 (reverse transfection with plasmid)
Outline: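 Channel opening potentiation measured as 1−F/F0, where F is YFP fluorescence 7 s after iodide injection and F0 before; EC50 taken from concentration plot. Cells: HEK293 transiently expressing CFTR G551D plus halide-sensitive YFP (H148Q, I152L, F47L), 24 h at 37 °C, 5% CO2.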

CFTR-G178R = target: T3, CFTR-G178R (Homo sapiens, UniProt P13569, G178R); assay: YFP-halide influx assay for the CFTR-G178R
T3 construct: expressed in transfected cells
Outline: (§1)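 HEK293 cells reverse-transfected with the CFTR mutant plus halide-sensitive YFP (H148Q/I152L/F47L), expressed 24 h at 37 °C. Channel activity measured as I⁻-induced fluorescence quenching over 7 s after injection, expressed as 1-F/F0; EC50 from 1-F/F0 versus compound concentration.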

CFTR-G1349D = target: T4, CFTR-G1349D (Homo sapiens, UniProt P13569, G1349D); assay: YFP-halide influx assay for the CFTR-G1349D
T4 construct: expressed in transfected cells
Outline: as §1

CFTR-S549N = target: T5, CFTR-S549N (Homo sapiens, UniProt P13569, S549N); assay: YFP-halide influx assay for the CFTR-S549N
T5 construct: expressed in transfected cells
Outline: as §1

CFTR-R117H = target: T6, CFTR-R117H (Homo sapiens, UniProt P13569, R117H); assay: YFP-halide influx assay for the CFTR-R117H
T6 construct: expressed in transfected cells
Outline: as §1

T3 sequence (P13569 whole entry G178R): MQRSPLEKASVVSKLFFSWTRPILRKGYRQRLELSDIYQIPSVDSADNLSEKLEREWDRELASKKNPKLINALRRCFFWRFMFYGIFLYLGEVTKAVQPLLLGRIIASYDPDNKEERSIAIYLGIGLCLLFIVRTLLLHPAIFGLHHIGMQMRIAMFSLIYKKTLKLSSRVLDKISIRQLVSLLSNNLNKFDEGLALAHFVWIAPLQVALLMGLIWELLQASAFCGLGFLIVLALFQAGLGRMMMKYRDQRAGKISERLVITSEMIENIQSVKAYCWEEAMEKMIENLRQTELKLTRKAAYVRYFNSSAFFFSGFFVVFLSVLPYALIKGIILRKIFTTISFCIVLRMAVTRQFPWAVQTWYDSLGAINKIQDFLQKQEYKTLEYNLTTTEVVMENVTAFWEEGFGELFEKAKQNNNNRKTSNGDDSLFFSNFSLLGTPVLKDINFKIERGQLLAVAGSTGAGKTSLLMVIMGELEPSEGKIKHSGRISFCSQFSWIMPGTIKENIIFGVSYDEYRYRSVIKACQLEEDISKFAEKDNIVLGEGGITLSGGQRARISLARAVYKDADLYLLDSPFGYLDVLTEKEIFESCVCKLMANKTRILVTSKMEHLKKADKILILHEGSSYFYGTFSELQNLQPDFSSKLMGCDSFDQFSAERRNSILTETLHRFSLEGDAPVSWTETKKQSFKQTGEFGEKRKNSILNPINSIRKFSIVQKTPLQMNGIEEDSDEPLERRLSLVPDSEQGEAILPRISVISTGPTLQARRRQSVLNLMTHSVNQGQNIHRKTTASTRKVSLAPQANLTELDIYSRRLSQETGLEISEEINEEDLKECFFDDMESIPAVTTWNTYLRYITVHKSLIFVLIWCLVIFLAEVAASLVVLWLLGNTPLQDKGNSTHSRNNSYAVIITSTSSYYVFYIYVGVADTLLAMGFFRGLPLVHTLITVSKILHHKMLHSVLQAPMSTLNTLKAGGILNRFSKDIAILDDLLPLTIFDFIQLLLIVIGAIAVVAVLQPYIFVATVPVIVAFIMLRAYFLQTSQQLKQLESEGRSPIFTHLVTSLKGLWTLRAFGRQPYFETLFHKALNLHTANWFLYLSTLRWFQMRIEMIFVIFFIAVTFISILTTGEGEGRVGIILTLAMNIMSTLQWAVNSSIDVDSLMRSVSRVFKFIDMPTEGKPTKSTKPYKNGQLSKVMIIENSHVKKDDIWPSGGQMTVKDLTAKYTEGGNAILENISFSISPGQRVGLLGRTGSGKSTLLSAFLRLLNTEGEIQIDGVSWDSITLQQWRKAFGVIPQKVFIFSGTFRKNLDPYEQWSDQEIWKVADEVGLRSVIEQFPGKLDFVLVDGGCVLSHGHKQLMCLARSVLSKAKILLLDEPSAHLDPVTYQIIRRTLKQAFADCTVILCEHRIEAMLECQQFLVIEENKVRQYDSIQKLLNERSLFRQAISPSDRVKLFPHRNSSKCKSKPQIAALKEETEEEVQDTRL
T1 sequence (P13569 with tags, fused parts or gaps DEL508-508): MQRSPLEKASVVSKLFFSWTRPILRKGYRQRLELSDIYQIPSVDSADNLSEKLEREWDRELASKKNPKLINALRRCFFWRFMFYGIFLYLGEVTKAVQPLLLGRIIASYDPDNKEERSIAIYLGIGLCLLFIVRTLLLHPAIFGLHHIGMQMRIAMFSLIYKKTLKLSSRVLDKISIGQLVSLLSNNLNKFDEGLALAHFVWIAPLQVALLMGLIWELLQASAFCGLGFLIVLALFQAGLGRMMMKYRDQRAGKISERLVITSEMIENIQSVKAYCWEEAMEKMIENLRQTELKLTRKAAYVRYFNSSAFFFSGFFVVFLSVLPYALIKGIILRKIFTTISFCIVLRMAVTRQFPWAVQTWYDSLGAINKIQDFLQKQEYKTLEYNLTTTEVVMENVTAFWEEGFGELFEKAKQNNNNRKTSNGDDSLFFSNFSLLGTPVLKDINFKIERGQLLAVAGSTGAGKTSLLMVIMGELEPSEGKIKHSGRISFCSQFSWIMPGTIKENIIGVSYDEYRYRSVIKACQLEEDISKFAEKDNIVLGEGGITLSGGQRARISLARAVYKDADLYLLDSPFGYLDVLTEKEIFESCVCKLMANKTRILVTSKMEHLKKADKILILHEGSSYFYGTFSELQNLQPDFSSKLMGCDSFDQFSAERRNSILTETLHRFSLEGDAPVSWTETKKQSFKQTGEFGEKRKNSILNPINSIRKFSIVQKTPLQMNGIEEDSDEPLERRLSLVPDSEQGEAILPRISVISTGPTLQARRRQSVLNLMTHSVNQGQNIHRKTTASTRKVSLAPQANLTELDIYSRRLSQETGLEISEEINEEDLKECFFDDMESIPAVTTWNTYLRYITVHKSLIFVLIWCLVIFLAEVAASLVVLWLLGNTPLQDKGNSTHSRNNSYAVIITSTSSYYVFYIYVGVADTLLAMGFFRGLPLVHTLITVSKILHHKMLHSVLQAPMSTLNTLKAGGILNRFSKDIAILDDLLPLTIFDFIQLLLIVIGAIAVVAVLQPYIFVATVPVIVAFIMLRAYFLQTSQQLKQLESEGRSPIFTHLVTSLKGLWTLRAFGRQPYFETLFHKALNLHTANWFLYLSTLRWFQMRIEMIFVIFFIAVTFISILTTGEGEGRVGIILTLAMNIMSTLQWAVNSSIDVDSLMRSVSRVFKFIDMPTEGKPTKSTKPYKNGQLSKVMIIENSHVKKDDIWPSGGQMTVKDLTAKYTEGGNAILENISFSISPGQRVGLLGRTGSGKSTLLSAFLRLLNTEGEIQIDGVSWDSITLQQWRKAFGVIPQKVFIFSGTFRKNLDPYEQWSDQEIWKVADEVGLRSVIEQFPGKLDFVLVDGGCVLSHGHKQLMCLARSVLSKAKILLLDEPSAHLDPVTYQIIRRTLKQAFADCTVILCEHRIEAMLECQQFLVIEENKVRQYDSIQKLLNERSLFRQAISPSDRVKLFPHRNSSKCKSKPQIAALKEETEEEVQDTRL
T4 sequence (P13569 whole entry G1349D): as the sequence (P13569 whole entry G178R) above, with R178G, G1349D counted along it
T6 sequence (P13569 whole entry R117H): as the sequence (P13569 whole entry G178R) above, with R117H, R178G counted along it
T2 sequence (P13569 whole entry G551D): as the sequence (P13569 whole entry G178R) above, with R178G, G551D counted along it
T5 sequence (P13569 whole entry S549N): as the sequence (P13569 whole entry G178R) above, with R178G, S549N counted along it

pEC50 (CFTR ΔF508 mutant [1])	pEC50 (CFTR ΔF508 mutant [2])	pEC50 (CFTR ΔF508 mutant [3])	pEC50 (CFTR G551D mutant)	pEC50 (CFTR-G178R)	pEC50 (CFTR-G1349D)	pEC50 (CFTR-S549N)	pEC50 (CFTR-R117H)	Structure (SMILES)
7.60	7.78	7.80	6.64	7.35	7.38	6.79	6.77	CN(Cc1ccccc1)S(=O)(=O)c1cc(C(N)=O)c(NC(=O)c2ccn[nH]2)s1 [Compound 73, N-(5-(N-benzyl-N-methylsulfamoyl)-3-carbamoylthiophen-2-yl)-1H-pyrazole-3-carboxamide]
7.37	7.51	7.92	6.47	7.15	6.82	6.45	6.65	NC(=O)c1cc(S(=O)(=O)c2ccccc2)sc1NC(=O)c1cc[nH]n1 [Compound 83, N-(3-carbamoyl-5-(phenylsulfonyl)thiophen-2-yl)-1H-pyrazole-3-carboxamide]
	7.52 and 6.86	7.56	6.06 and 5.85	7.24	6.85	6.61	6.89	NC(=O)c1cc(S(=O)(=O)c2ccc(F)cc2)sc1NC(=O)C1(CO)CC1 [Compound 254, 5-(4-fluorophenylsulfonyl)-2-(1-(hydroxymethyl)cyclopropanecarboxamido) thiophene-3-carboxamide]
	7.71	7.74	6.32	6.54	6.67	6.38	6.74	CC(C)(O)C(=O)Nc1sc(S(=O)(=O)c2ccc(OC(F)(F)F)cc2)cc1C(N)=O [Compound 270, 2-(2-hydroxy-2-methylpropanamido)-5-(4-(trifluoromethoxy)phenylsulfonyl) thiophene-3-carboxamide]
	8.09	8.12	6.75	7.62	7.43	7.22	7.40	CC(C)(O)C(=O)Nc1sc(S(=O)(=O)c2ccccc2OC(F)(F)F)cc1C(N)=O [Compound 271, 2-(2-hydroxy-2-methylpropanamido)-5-(2-(trifluoromethoxy)phenylsulfonyl) thiophene-3-carboxamide]
	7.34	7.58	6.07	6.78	6.52	5.94	6.79	CC(C)(O)C(=O)Nc1sc(S(=O)(=O)c2ccc(F)cc2Cl)cc1C(N)=O [Compound 286, 5-(2-chloro-4-fluorophenylsulfonyl)-2-(2-hydroxy-2-methylpropanamido) thiophene-3-carboxamide]
	7.46	7.56	6.06	6.68	6.59	6.06	6.78	CC(C)(O)C(=O)Nc1sc(S(=O)(=O)c2ccccc2Cl)cc1C(N)=O [Compound 290, 5-(2-chlorophenylsulfonyl)-2-(2-hydroxy-2-methylpropanamido) thiophene-3-carboxamide]
	8.21	8.26	6.68	6.99	7.16	6.79	7.01	CC(C)(O)C(=O)Nc1sc(S(=O)(=O)c2c(Cl)cccc2Cl)cc1C(N)=O [Compound 298, 5-(2,6-Dichloro-benzenesulfonyl)-2-(2-hydroxy-2-methyl-propionylamino)-thiophene-3-carboxylic acid amide]
		7.78	5.72	7.47	6.93	6.62	6.76	NC(=O)c1cc(S(=O)(=O)c2ccc(OC(F)(F)F)cc2F)sc1NC(=O)C1(CO)CC1 [Compound 435, 5-[2-fluoro-4-(trifluoromethoxy)phenyl] sulfonyl-2-[[1-(hydroxymethyl)cyclopropanecarbonyl]amino] thiophene-3-carboxamide]
